For this data set the following is noted: 101.33 kPa, Liquid; for speed of sound: Sing-around technique in a fixed-path interferometer.

Structures are written as SMILES. ± gives the expanded uncertainty stated by the source.

Results on three compounds are retold here after the NIST ThermoML archive (doi:10.1016/j.jct.2007.02.002).

Broadly, the mass density is mass per unit of volume. By speed of sound is commonly meant the propagation velocity of pressure waves in the medium.

With `CCCCO` [butan-1-ol], the mass density is 813.24 ± 0.4 kg/m3 (288.15 K); 809.48 ± 0.4 kg/m3 (293.15 K); 805.67 ± 0.4 kg/m3 (298.15 K); 801.85 ± 0.4 kg/m3 (303.15 K); 797.99 ± 0.41 kg/m3 (308.15 K). The speed of sound (288.15 K) is on record as 1273.7 ± 1.7 m/s; the speed of sound (293.15 K) was determined as 1257 ± 1.7 m/s; the speed of sound (298.15 K) is on record as 1239.8 ± 1.7 m/s; the speed of sound (303.15 K) worked out at 1222.7 ± 1.7 m/s; the speed of sound (308.15 K) stood at 1205.9 ± 1.7 m/s.
Consider `COC(C)(C)C` [2-methoxy-2-methylpropane], for which the mass density is given as 745.79 ± 0.27 kg/m3 (288.15 K); 740.6 ± 0.28 kg/m3 (293.15 K); 735.35 ± 0.28 kg/m3 (298.15 K); 730.06 ± 0.28 kg/m3 (303.15 K); 724.73 ± 0.29 kg/m3 (308.15 K). Further, the speed of sound is, setting by setting: (288.15 K) 1082.4 ± 1.2 m/s; (293.15 K) 1059.4 ± 1.2 m/s; (298.15 K) 1036.1 ± 1.2 m/s; (303.15 K) 1013 ± 1.2 m/s; (308.15 K) 990.1 ± 1.1 m/s.
Turning to `CCCCCC` [hexane], the mass density (288.15 K) amounted to 663.87 ± 0.68 kg/m3; the mass density (293.15 K) is on record as 659.44 ± 0.69 kg/m3; the mass density (298.15 K) was 654.95 ± 0.7 kg/m3; the mass density (303.15 K) is reported as 650.4 ± 0.7 kg/m3; the mass density (308.15 K) stood at 645.82 ± 0.71 kg/m3. The speed of sound amounted to 1121.4 ± 1.3 m/s (288.15 K); 1099 ± 1.3 m/s (293.15 K); 1076.3 ± 1.2 m/s (298.15 K); 1053.6 ± 1.2 m/s (303.15 K); 1031.1 ± 1.2 m/s (308.15 K).
